Patent publication US20260356856A1, “KRAS G12S AND G12C INHIBITORS” (MIRATI THERAPEUTICS, INC., priority 2023, published 2026)

Assays:
KRas G12S = target: T1, KRas G12S (Homo sapiens, UniProt P01116, G12S); assay: KRas binding assay, TR-FRET displacement of Cy5 labelled tracer; conditions: 60-minute incubation at room temperature, 1% DMSO, pH 7.5
T1 construct: Biotinylated KRas (corresponding to amino acids 1-169, produced at Accelegan Inc.); biotin (biotinylated); purchased Accelegan Inc
Procedure, shortened: (§1)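 TR-FRET tracer-displacement readout after 60 min at room temperature, using KRas residues 1-169 (biotinylated) with terbium streptavidin and a Cy5 tracer. Buffer: 50 mM HEPES pH 7.5, 5 mM MgCl2, 0.005% Tween-20, 1 mM DTT, 1% DMSO final. IC50 from 4-parameter fit of POC data.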

KRas G12C = target: T2, KRas G12C (Homo sapiens, UniProt P01116, G12C); assay: as above; conditions: 60-minute incubation at room temperature, 1% DMSO, pH 7.5
T2 construct: Biotinylated KRas (corresponding to amino acids 1-169, produced at Accelegan Inc.); biotin (biotinylated); purchased Accelegan Inc
Procedure, shortened: as §1

KRas WT = target: T3, KRas WT (Homo sapiens, UniProt P01116); assay: as above; conditions: 60-minute incubation at room temperature, 1% DMSO, pH 7.5
T3 construct: Biotinylated KRas (corresponding to amino acids 1-169, produced at Accelegan Inc.); biotin (biotinylated); purchased Accelegan Inc
Procedure, shortened: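 Final conditions: 1% DMSO, pH 7.5 HEPES buffer, 60 min, room temperature. Protein: biotin-KRas 1-169 with terbium streptavidin. Output: IC50, four-parameter fit of POC.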

[1] = target: T4, KRas-mediated phosphorylation of ERK in MKN1 cells (Homo sapiens, UniProt P01116); assay: Inhibition of KRas-mediated phosphorylation of ERK (HTRF), MKN1 cells; assay type: cell-based; conditions: MKN1 cells (KRas WT); HTRF pERK; 3 h incubation
T4 construct: pERK HTRF read-out
Description: Inhibition of KRas Phosphorylation of ERK (HTRF) by Exemplary Compounds of Formula (Ia) or (Ib)
Cisbio HTRF Advanced pERK Assay Catalog #64AERPEH • Cells: MKN1, PSN1 • Procedure: • 1. Day 1: Seed 6,000 cells/well −25 μl/well in 384-well white solid bottom plate; RPM1_10% FBS. Incubate overnight at 37 °C/5% CO2. • 2.

[2] = target: T5, KRas-mediated phosphorylation of ERK in A549 cells (Homo sapiens, UniProt P01116, G12S); assay: Inhibition of KRas-mediated phosphorylation of ERK (HTRF), A549 cells; assay type: cell-based; conditions: HTRF pERK, 3 h incubation
T5 construct: pERK HTRF read-out

[3] = target: T6, KRas-mediated phosphorylation of ERK in H358 cells (Homo sapiens, UniProt P01116, G12C); assay: Inhibition of KRas-mediated phosphorylation of ERK (HTRF), H358 cells; assay type: cell-based; conditions: HTRF pERK, 3 h incubation
T6 construct: pERK HTRF read-out
T6 sequence (P01116 1-188 isoform P01116-2 G12C): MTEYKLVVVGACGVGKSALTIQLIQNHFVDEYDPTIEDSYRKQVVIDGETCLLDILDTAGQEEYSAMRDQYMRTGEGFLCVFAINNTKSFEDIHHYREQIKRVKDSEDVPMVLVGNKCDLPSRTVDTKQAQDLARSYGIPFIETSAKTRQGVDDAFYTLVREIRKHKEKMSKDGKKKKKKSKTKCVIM

T4 sequence (P01116 1-188 isoform P01116-2): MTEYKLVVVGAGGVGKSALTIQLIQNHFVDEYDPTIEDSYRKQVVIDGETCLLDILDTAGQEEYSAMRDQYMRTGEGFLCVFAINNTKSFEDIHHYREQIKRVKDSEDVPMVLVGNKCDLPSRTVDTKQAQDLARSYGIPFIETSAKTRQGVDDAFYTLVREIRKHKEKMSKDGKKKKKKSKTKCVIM
T5 sequence (P01116 1-188 isoform P01116-2 G12S): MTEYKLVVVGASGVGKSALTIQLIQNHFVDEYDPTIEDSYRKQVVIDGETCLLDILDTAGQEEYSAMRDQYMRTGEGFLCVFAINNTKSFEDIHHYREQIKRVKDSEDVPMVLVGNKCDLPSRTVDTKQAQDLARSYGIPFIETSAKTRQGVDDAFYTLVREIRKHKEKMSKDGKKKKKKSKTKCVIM
T3 sequence (P01116 1-169 isoform P01116-2): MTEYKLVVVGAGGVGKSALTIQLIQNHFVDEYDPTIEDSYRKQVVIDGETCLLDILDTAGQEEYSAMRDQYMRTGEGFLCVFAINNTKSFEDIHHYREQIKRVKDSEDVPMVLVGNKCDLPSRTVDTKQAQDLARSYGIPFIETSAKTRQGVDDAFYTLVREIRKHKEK
T1 sequence (P01116 1-169 isoform P01116-2 G12S): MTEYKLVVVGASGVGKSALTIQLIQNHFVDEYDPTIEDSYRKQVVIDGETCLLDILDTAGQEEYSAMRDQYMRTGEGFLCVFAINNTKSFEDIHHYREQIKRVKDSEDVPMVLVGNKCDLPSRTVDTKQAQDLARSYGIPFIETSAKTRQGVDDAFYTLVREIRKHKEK
T2 sequence (P01116 1-169 isoform P01116-2 G12C): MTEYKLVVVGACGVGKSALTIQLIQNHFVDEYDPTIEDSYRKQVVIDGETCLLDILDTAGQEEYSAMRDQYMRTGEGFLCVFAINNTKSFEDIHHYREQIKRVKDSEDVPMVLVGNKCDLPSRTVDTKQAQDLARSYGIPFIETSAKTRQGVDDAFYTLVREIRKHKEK

Row | IC50 (KRas G12S) | IC50 (KRas G12C) | IC50 (KRas WT) | IC50 [1] | IC50 [2] | IC50 [3] | SMILES
1 | 3 nM | < 2 nM | 4 nM | 101 nM | 195 nM | 1 nM | CN(CCN(C)c1nc(OC[C@@]23CCCN2C[C@H](F)C3)nc2c(F)c(-c3ccc(F)c4sc(N)c(C#N)c34)c(Cl)cc12)C(=O)n1ccnn1 (single isomer, unassigned) [Example 203]
2 | 3 nM | 3 nM | 4 nM | 18 nM | 5 nM | 29 nM | CC(=O)N(C)C(=O)C1CCN(c2nc(OC[C@@]34CCCN3C[C@H](F)C4)nc3c(F)c(-c4ccc(F)c5sc(N)c(C#N)c45)c(Cl)cc23)CC1 [Example 254, N-acetyl-1-((S)-7-(2-amino-3-cyano-7-fluorobenzo[b]thiophen-4-yl)-6-chloro-8-fluoro-2-(((2R,7aS)-2-fluorotetrahydro-1H-pyrrolizin-7a(5H)-yl)methoxy)quinazolin-4-yl)-N-methylpiperidine-4-carboxamide]
3 | 6 nM | 13 nM | 43 nM | 936 nM | 84 nM | 1170 nM | CCc1c(F)ccc2cc(O)cc(N3CCc4c(nc(OC[C@@]56CCCN5C[C@H](F)C6)nc4NCCC(=O)n4ccc(C)n4)C3)c12 [Example 195, 3-((7-(8-ethyl-7-fluoro-3-hydroxynaphthalen-1-yl)-2-(((2R,7aS)-2-fluorotetrahydro-1H-pyrrolizin-7a(5H)-yl)methoxy)-5,6,7,8-tetrahydropyrido[3,4-d]pyrimidin-4-yl)amino)-1-(3-methyl-1H-pyrazol-1-yl) propan-1-one]
4 | 3410 nM | 18300 nM | 29600 nM | 8260 nM | 1970 nM | > 10000 nM | Cc1ccn(C(=O)C2CCCN(c3nc(OC[C@@]45CCCN4C[C@H](F)C5)nc4c(F)c(-c5nc(N)ccc5C)c(Cl)cc34)CC2)n1 (stereo partly drawn) [Example 222, (1-(7-(6-amino-3-methylpyridin-2-yl)-6-chloro-8-fluoro-2-(((2R,7aS)-2-fluorotetrahydro-1H-pyrrolizin-7a(5H)-yl)methoxy)quinazolin-4-yl)azepan-4-yl)(3-methyl-1H-pyrazol-1-yl)methanone]
5 | 2 nM | 3 nM | 8 nM | 70 nM | 5 nM | 15 nM | COCC(=O)N(C)C(=O)CCCN(C)c1nc(OC[C@@]23CCCN2C[C@H](F)C3)nc2c(F)c(-c3ccc(F)c4sc(N)c(C#N)c34)c(Cl)cc12 [Example 307, 4-((7-(2-amino-3-cyano-7-fluorobenzo[b]thiophen-4-yl)-6-chloro-8-fluoro-2-(((2R,7aS)-2-fluorotetrahydro-1H-pyrrolizin-7a(5H)-yl)methoxy)quinazolin-4-yl)(methyl)amino)-N-(2-methoxyacetyl)-N-methylbutanamide]
6 | 3 nM | 3 nM | 8 nM | 125 nM | 19 nM | 80 nM | CC(=O)N(C)C(=O)CCCN(C)c1nc(OC[C@@]23CCCN2C[C@H](F)C3)nc2c(F)c(-c3ccc(F)c4sc(N)c(C#N)c34)c(Cl)cc12 [Example 259, N-acetyl-4-((7-(2-amino-3-cyano-7-fluorobenzo[b]thiophen-4-yl)-6-chloro-8-fluoro-2-(((2R,7aS)-2-fluorotetrahydro-1H-pyrrolizin-7a(5H)-yl)methoxy)quinazolin-4-yl)(methyl)amino)-N-methylbutanamide]
7 | 13 nM | 8 nM | 26 nM | 140 nM | 39 nM | 9 nM | CN(C)c1ccn(C(=O)C2CCCN(c3nc(OC[C@@]45CCCN4C[C@H](F)C5)nc4c(F)c(-c5ccc(F)c6sc(N)c(C#N)c56)c(Cl)cc34)CC2)n1 (stereo partly drawn) [Example 188, 2-amino-4-(6-chloro-4-(4-(3-(dimethylamino)-1H-pyrazole-1-carbonyl)azepan-1-yl)-8-fluoro-2-(((2R,7aS)-2-fluorotetrahydro-1H-pyrrolizin-7a(5H)-yl)methoxy)quinazolin-7-yl)-7-fluorobenzo[b]thiophene-3-carbonitrile]
8 | 7 nM | 5 nM | 9 nM | 763 nM | 6880 nM | 296 nM | COC(=O)CCCN(C)c1nc(OC[C@@]23CCCN2C[C@H](F)C3)nc2c(F)c(-c3ccc(F)c4sc(N)c(C#N)c34)c(Cl)cc12 [Example 217, methyl 4-((7-(2-amino-3-cyano-7-fluorobenzo[b]thiophen-4-yl)-6-chloro-8-fluoro-2-(((2R,7aS)-2-fluorotetrahydro-1H-pyrrolizin-7a(5H)-yl)methoxy)quinazolin-4-yl)(methyl)amino)butanoate]

Continued, molecule first:

Row | SMILES | IC50 (KRas G12S) | IC50 (KRas G12C) | IC50 (KRas WT) | IC50 [1] | IC50 [2] | IC50 [3]
9 | CCc1c(F)ccc2cc(O)cc(-c3ncc4c(N5CC[C@H](C(=O)n6ccc(C)n6)[C@H](C)C5)nc(OC[C@@]56CCCN5C[C@H](F)C6)nc4c3F)c12 [Example 85, ((3S,4S)-1-(7-(8-ethyl-7-fluoro-3-hydroxynaphthalen-1-yl)-8-fluoro-2-(((2R,7aS)-2-fluorotetrahydro-1H-pyrrolizin-7a(5H)-yl)methoxy)pyrido[4,3-d]pyrimidin-4-yl)-3-methylpiperidin-4-yl)(3-methyl-1H-pyrazol-1-yl)methanone] | 17 nM | 28 nM | 8 nM | 48 nM | 883 nM | 458 nM
10 | C=Cc1ccn(C(=O)C2CCN(c3nc(OC[C@@]45CCCN4C[C@H](F)C5)nc4c(F)c(-c5cc(O)cc6ccc(F)c(CC)c56)ncc34)CC2)n1 [Example 66, (1-(7-(8-ethyl-7-fluoro-3-hydroxynaphthalen-1-yl)-8-fluoro-2-(((2R,7aS)-2-fluorotetrahydro-1H-pyrrolizin-7a(5H)-yl)methoxy)pyrido[4,3-d]pyrimidin-4-yl)piperidin-4-yl)(3-vinyl-1H-pyrazol-1-yl)methanone] | 26 nM | 57 nM | 154 nM | 5200 nM | 141 nM | 9020 nM
11 | Cc1ccn(C(=O)CC2CN(c3nc(OC[C@@]45CCCN4C[C@H](F)C5)nc4c(F)c(-c5ccc(F)c6sc(N)c(C#N)c56)c(Cl)cc34)C2)n1 [Example 138, 2-amino-4-(6-chloro-8-fluoro-2-(((2R,7aS)-2-fluorotetrahydro-1H-pyrrolizin-7a(5H)-yl)methoxy)-4-(3-(2-(3-methyl-1H-pyrazol-1-yl)-2-oxoethyl)azetidin-1-yl)quinazolin-7-yl)-7-fluorobenzo[b]thiophene-3-carbonitrile] | 6 nM | 13 nM | 16 nM | 106 nM | 137 nM | 157 nM
12 | CCc1c(F)ccc2cc(O)cc(-c3ncc4c(N5CCC(C(=O)n6ccc(N(C)C)n6)CC5)nc(OC[C@@]56CCCN5C[C@H](F)C6)nc4c3F)c12 [Example 58, (3-(dimethylamino)-1H-pyrazol-1-yl)(1-(7-(8-ethyl-7-fluoro-3-hydroxynaphthalen-1-yl)-8-fluoro-2-(((2R,7aS)-2-fluorotetrahydro-1H-pyrrolizin-7a(5H)-yl)methoxy)pyrido[4,3-d]pyrimidin-4-yl)piperidin-4-yl)methanone] | 221 nM | 108 nM | 89 nM | 427 nM | 338 nM | 677 nM
13 | CCc1c(F)ccc2cc(O)cc(-c3ncc4c(N5CC(CC(=O)n6ccc(C)n6)C5)nc(OC[C@@]56CCCN5C[C@H](F)C6)nc4c3F)c12 [Example 84, 2-(1-(7-(8-ethyl-7-fluoro-3-hydroxynaphthalen-1-yl)-8-fluoro-2-(((2R,7aS)-2-fluorotetrahydro-1H-pyrrolizin-7a(5H)-yl)methoxy)pyrido[4,3-d]pyrimidin-4-yl)azetidin-3-yl)-1-(3-methyl-1H-pyrazol-1-yl) ethan-1-one] | 7 nM | 53 nM | 154 nM | 6390 nM | 55 nM | 7600 nM
14 | N#Cc1c(N)sc2c(F)ccc(-c3c(Cl)cc4c(N5CCC(C(=O)n6cccn6)CC5)nc(OC[C@@]56CCCN5C[C@H](F)C6)nc4c3F)c12 [Example 129, 4-(4-(4-(1H-pyrazole-1-carbonyl)piperidin-1-yl)-6-chloro-8-fluoro-2-(((2R,7aS)-2-fluorotetrahydro-1H-pyrrolizin-7a(5H)-yl)methoxy)quinazolin-7-yl)-2-amino-7-fluorobenzo[b]thiophene-3-carbonitrile] | 5 nM | 7 nM | 8 nM | 139 nM | 4 nM | 26 nM
